According to patent US9174942B2, “IDO inhibitors” (NewLink Genetics Corporation, priority 2008, dated 2015):
Structures can show the parent of a compound that is named as a salt.

These compounds were tested against T1, purified human IDO protein (Homo sapiens, UniProt P14902, E119G/P110S) (assay: Enzymatic IDO assay (kynurenine formation, absorbance at 480 nm)). Settings: recombinant human IDO, 200 μM L-tryptophan, pH 6.5; reported in ranges.
T1 construct: 6-Histidine tag (C); made in house; host or cells: E. coli M15(pREP4) transformed with pQE70-hIDO
Assay type: biochemical
Description: The inhibitors were initially diluted in DMSO at 100 mM and were diluted in potassium phosphate 50 mM, added to the reaction mixture at final concentrations raging from 1 mM to 5 nM and preincubated with the enzyme for 5 min at 25° C. The reaction was started by addition of L-tryptophan to 200 μM and incubated 15 min at 37° C. The reaction was stopped by addition of 0.5 vol of 30% trichloroacetic acid and incubated 30 min at 60° C. to hydrolyze N-formylkynurenine to kynurenine. The reaction was centrifuged at 3400 g for 5 min to remove precipitated protein and the supernatant was reacted with 2% (w/v) of p-dimethylaminobenzaldehyde in acetic acid. The reaction was incubated 10 min at 25° C. and read at 480 nm in a spectrophotometer. […] Nonlinear regressions and determination of the IC50 values were performed using the GraphPad Prism 4 software.

T1 sequence (P14902 whole entry P110S/E119G): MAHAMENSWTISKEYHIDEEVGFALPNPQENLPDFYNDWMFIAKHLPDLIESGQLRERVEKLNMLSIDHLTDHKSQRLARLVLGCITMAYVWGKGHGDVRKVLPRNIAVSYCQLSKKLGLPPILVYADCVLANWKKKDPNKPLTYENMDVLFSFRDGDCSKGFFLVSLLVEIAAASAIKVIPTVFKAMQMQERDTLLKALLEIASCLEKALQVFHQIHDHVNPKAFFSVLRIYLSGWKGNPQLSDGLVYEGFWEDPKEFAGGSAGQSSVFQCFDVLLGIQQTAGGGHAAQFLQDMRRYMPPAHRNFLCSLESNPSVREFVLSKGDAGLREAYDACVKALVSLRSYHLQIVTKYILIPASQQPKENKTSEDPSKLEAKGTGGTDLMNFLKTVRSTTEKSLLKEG

Structure (SMILES)	IC50
Clc1ccc(Cn2cncc2-c2ccccc2)cc1 [Compound 54, 1-(4-chlorobenzyl)-5-phenyl-1H-imidazole]	20 to 100 µM
Oc1ccc(F)cc1-c1cc[nH]n1 [Compound 36, 4-fluoro-2-(1H-pyrazol-3-yl)phenol]	< 20 µM
COC(=O)c1cccc(-c2c[nH]cn2)c1 [Compound 112, methyl 3-(1H-imidazol-4-yl)benzoate]	100 to 500 µM
O=[N+]([O-])c1cccc(Cn2cncc2-c2ccccc2)c1 [Compound 95, 1-(3-nitrobenzyl)-5-phenyl-1H-imidazole]	20 to 100 µM
CC(C)(C)CCOc1c(Br)cccc1-c1c[nH]cn1 [Compound 26, 4-(3-bromo-2-(3,3-dimethylbutoxy)phenyl)-1H-imidazole]	< 20 µM
O=[N+]([O-])c1ccccc1Cn1cncc1-c1ccccc1 [Compound 71, 1-(2-nitrobenzyl)-5-phenyl-1H-imidazole]	20 to 100 µM
CC(C)(C)OC(=O)Nc1ccccc1-c1c[nH]cn1 [Compound 152, tert-butyl 2-(1H-imidazol-4-yl)phenylcarbamate]	< 20 µM
Cc1ccc(Cn2cncc2-c2ccccc2)cc1 [Compound 72, 1-(4-methylbenzyl)-5-phenyl-1H-imidazole]	20 to 100 µM
CC(=O)N1CCC(COc2ccccc2-c2c[nH]cn2)CC1 [Compound 100, 1-(4-((2-(1H-imidazol-4-yl)phenoxy)methyl)piperidin-1-yl)ethanone]	100 to 500 µM
COc1ccc(Cn2cncc2-c2ccccc2)cc1 [Compound 68, 1-(4-methoxybenzyl)-5-phenyl-1H-imidazole]	20 to 100 µM
CC(=O)NC1CCC(=CCOc2ccccc2-c2c[nH]cn2)CC1 (stereo not drawn) [Compound 39, N-(4-(2-(2-(1H-imidazol-4-yl)phenoxy)ethylidene)cyclohexyl)acetamide]	< 20 µM
COc1cccc(OC)c1-c1c[nH]cn1 [Compound 103, 5-(2,6-dimethoxyphenyl)-1H-imidazole]	100 to 500 µM
COc1cccc(Cn2cncc2-c2ccccc2)c1 [Compound 93, 1-(3-methoxybenzyl)-5-phenyl-1H-imidazole]	20 to 100 µM
Clc1ccc(CNc2ccccc2-c2c[nH]cn2)cc1 [Compound 62, N-(4-chlorobenzyl)-2-(1H-imidazol-4-yl)aniline]	20 to 100 µM
Clc1ccc(COc2ccc(Br)cc2-c2c[nH]cn2)cc1 [Compound 49, 4-(5-bromo-2-(4-chlorobenzyloxy)phenyl)-1H-imidazole]	< 20 µM
CCOC(=O)CCn1cncc1-c1ccccc1 [Compound 122, ethyl 3-(5-phenyl-1H-imidazol-1-yl)propanoate]	100 to 500 µM
Oc1ccc(O)c(-c2c[nH]cn2)c1 [Compound 21, 2-(1H-imidazol-4-yl)benzene-1,4-diol]	< 20 µM
c1ccc(Cc2nc[nH]c2-c2ccccc2)cc1 [Compound 123, 4-benzyl-5-phenyl-1H-imidazole]	100 to 500 µM

Structure (SMILES)	IC50
Oc1ccc(Cn2cncc2-c2ccccc2)cc1 [Compound 125, 4-((5-phenyl-1H-imidazol-1-yl)methyl)phenol]	100 to 500 µM
COc1ccccc1Cn1cncc1-c1ccccc1 [Compound 110, 1-(2-methoxybenzyl)-5-phenyl-1H-imidazole]	100 to 500 µM
CC(=O)NCCCCn1cncc1-c1ccccc1 [Compound 127, N-(4-(5-phenyl-1H-imidazol-1-yl)butyl)acetamide]	100 to 500 µM
c1ccc(CCCn2cncc2-c2ccccc2)cc1 [Compound 64, 5-phenyl-1-(3-phenylpropyl)-1H-imidazole]	20 to 100 µM
Oc1ccccc1Cn1cncc1-c1ccccc1 [Compound 65, 2-((5-phenyl-1H-imidazol-1-yl)methyl)phenol]	20 to 100 µM
N#Cc1cccc(COc2ccccc2-c2c[nH]cn2)c1 [Compound 74, 3-((2-(1H-imidazol-4-yl)phenoxy)methyl)benzonitrile]	20 to 100 µM
COC(=O)Cn1cncc1-c1ccccc1 [Compound 105, methyl 2-(5-phenyl-1H-imidazol-1-yl)acetate]	100 to 500 µM
N#Cc1ccccc1Cn1cncc1-c1ccccc1 [Compound 96, 2-((5-phenyl-1H-imidazol-1-yl)methyl)benzonitrile]	20 to 100 µM
N#Cc1ccc(Cn2cncc2-c2ccccc2)cc1 [Compound 97, 4-((5-phenyl-1H-imidazol-1-yl)methyl)benzonitrile]	20 to 100 µM
Clc1cccc(Cn2cncc2-c2ccccc2)c1 [Compound 87, 1-(3-chlorobenzyl)-5-phenyl-1H-imidazole]	20 to 100 µM
Fc1cc(F)cc(-c2c[nH]cn2)c1 [Compound 59, 4-(3,5-difluorophenyl)-1H-imidazole]	20 to 100 µM
c1ccc(CCc2nc[nH]c2-c2ccccc2)cc1 [Compound 126, 4-phenethyl-5-phenyl-1H-imidazole]	100 to 500 µM
Clc1ccc(COc2ccc(OCc3ccc(Cl)cc3)c(-c3c[nH]cn3)c2)cc1 [Compound 91, 4-(2,5-bis(4-chlorobenzyloxy)phenyl)-1H-imidazole]	20 to 100 µM
Clc1ccccc1COc1ccccc1-c1c[nH]cn1 [Compound 75, 4-(2-(2-chlorobenzyloxy)phenyl)-1H-imidazole]	20 to 100 µM
CNC(=O)Cc1cccc(COc2ccccc2-c2c[nH]cn2)c1 [Compound 57, 2-(3-((2-(1H-imidazol-4-yl)phenoxy)methyl)phenyl)-N-methylacetamide]	20 to 100 µM
N#Cc1ccccc1COc1ccccc1-c1c[nH]cn1 [Compound 99, 2-((2-(1H-imidazol-4-yl)phenoxy)methyl)benzonitrile]	100 to 500 µM
Cc1ccc(COc2ccccc2-c2c[nH]cn2)cc1 [Compound 66, 4-(2-(4-methylbenzyloxy)phenyl)-1H-imidazole]	20 to 100 µM

Further lines, results first:

IC50	Structure (SMILES)
20 to 100 µM	NCCCOc1ccccc1-c1cnc[nH]1 [Compound 92, 3-(2-(1H-imidazol-5-yl)phenoxy)propan-1-amine]
100 to 500 µM	c1cnc(NCCCOc2ccccc2-c2cnc[nH]2)nc1 [Compound 98, N-(3-(2-(1H-imidazol-5-yl)phenoxy)propyl)pyrimidin-2-amine]
< 20 µM	Oc1ccc(CCOc2ccccc2-c2c[nH]cn2)cc1 [Compound 158, 4-(2-(2-(1H-imidazol-4-yl)phenoxy)ethyl)phenol]
< 20 µM	CC(C)(CCOc1ccccc1-c1c[nH]cn1)CCOc1ccccc1-c1cnc[nH]1 [Compound 18, 5,5′-(2,2′-(3,3-dimethylpentane-1,5-diyl)bis(oxy)bis(2,1-phenylene))bis(1H-imidazole)]
100 to 500 µM	O=CNCCOc1ccccc1-c1c[nH]cn1 [Compound 107, N-(2-(2-(1H-imidazol-4-yl)phenoxy)ethyl)formamide]
< 20 µM	CNC(=O)c1cccc(CCOc2ccccc2-c2c[nH]cn2)c1 [Compound 50, 3-(2-(2-(1H-imidazol-4-yl)phenoxy)ethyl)-N-methylbenzamide]
100 to 500 µM	NC(=O)COc1ccccc1-c1c[nH]cn1 [Compound 104, 2-(2-(1H-imidazol-4-yl)phenoxy)acetamide]
20 to 100 µM	CC(C)(CCNc1ccncc1)CCOc1ccccc1-c1cnc[nH]1 [Compound 164, N-(5-(2-(1H-imidazol-5-yl)phenoxy)-3,3-dimethylpentyl) pyridin-4-amine]
< 20 µM	Clc1cccc(COc2ccccc2-c2cnc[nH]2)c1 [Compound 29, 5-(2-(3-chlorobenzyloxy)phenyl)-1H-imidazole]
< 20 µM	CC(=O)Nc1cccc(CCOc2ccccc2-c2c[nH]cn2)c1 [Compound 40, N-(3-(2-(2-(1H-imidazol-4-yl)phenoxy)ethyl)phenyl) acetamide]
100 to 500 µM	NCCn1cncc1-c1ccccc1 [Compound 118, 2-(5-phenyl-1H-imidazol-1-yl)ethanamine]
< 20 µM	Oc1ccccc1-c1cc[nH]n1 [Compound 43, 2-(1H-pyrazol-3-yl)phenol]
< 20 µM	CC(=O)N1CCC(CCOc2ccccc2-c2c[nH]cn2)CC1 [Compound 151, 1-(4-(2-(2-(1H-imidazol-4-yl)phenoxy)ethyl)piperidin-1-yl)ethanone]
100 to 500 µM	CC(C)(C)CCn1cncc1-c1ccccc1OCc1ccc(Cl)cc1 [Compound 106, 5-(2-(4-chlorobenzyloxy)phenyl)-1-(3,3-dimethylbutyl)-1H-imidazole]
20 to 100 µM	OCc1ccccc1-c1c[nH]cn1 [Compound 78, (2-(1H-imidazol-4-yl)phenyl)methanol]
20 to 100 µM	CC(C)(CCOc1ccccc1-c1c[nH]cn1)CCC(=O)O [Compound 83, 6-(2-(1H-imidazol-4-yl)phenoxy)-4,4-dimethylhexanoic acid hydrochloride]
20 to 100 µM	Oc1cc(Cl)ccc1-c1cnc[nH]1 [Compound 63, 5-chloro-2-(1H-imidazol-5-yl)phenol]
< 20 µM	CNC(=O)c1ccc(CCOc2ccccc2-c2c[nH]cn2)cc1 [Compound 45, 4-(2-(2-(1H-imidazol-4-yl)phenoxy)ethyl)-N-methylbenzamide]
20 to 100 µM	CC(C)(CCO)CCOc1ccccc1-c1c[nH]cn1 [Compound 167, 5-(2-(1H-imidazol-4-yl)phenoxy)-3,3-dimethylpentan-1-ol]
< 20 µM	Brc1ccccc1CCOc1ccccc1-c1c[nH]cn1 [Compound 148, 4-(2-(2-bromophenethoxy)phenyl)-1H-imidazole]
< 20 µM	Brc1cccc(-c2cnc[nH]2)c1 [Compound 27, 5-(3-bromophenyl)-1H-imidazole]
100 to 500 µM	CCOC(=O)CCCn1cncc1-c1ccccc1 [Compound 121, ethyl 4-(5-phenyl-1H-imidazol-1-yl)butanoate]
